Laboratory results taken from US20240208950A1, “COMPOSITIONS AND METHODS FOR TREATMENT OF CERVICAL AND OVARIAN CANCER” (SOUTH DAKOTA BOARD OF REGENTS, priority 2021, published 2024).

What was measured:
SiHa cells [1] = experiment: Cell proliferation assay (MTS), SiHa; type: cell-based, human; conditions: 1-20 μM, 24 hours
Description: The effect of Br-ORM on CaSki and SiHa cells proliferation was performed using the MTS assay. Briefly, cells were seeded at a density of 5×10^3 cells per well in 96 well plate and allowed to stand overnight at 37° C. and 5% CO2 incubator. Next day, cells were treated with different concentrations of Br-ORM (1, 5, 10 and 20 μM). DMSO was used as a vehicle for the treatment of control cells. Twenty four hours post-treatment, 20 μL of MTS reagent (5 mg/mL) was added in each well and further incubated the plate for 2 hours in a CO2 incubator. Absorbance was taken after 2 hours at […] (SpectraMax M2 spectrophotometer, Molecular Devices, Sunnyvale, CA, USA). The experiment was performed in triplicates. Results were represented as percent viability with respect to the control group. […]
(§1) FIG. 13. […] Cell viability was assessed by MTS assay. […] Bar graphs indicating quantification of colony formation in CaSki (i), and SiHa (ii) cells of cervical cancer with respect to vehicle control. […] Briefly, cervical cancer cells were treated with Br-ORM (10 μM) for 24 hours and the apoptosis inducing effect of Br-ORM was analyzed by Annexin V staining. […] The equal loading of protein in each lane was determined by probing the blots with β-actin antibody (FIG. 13F). […] Br-ORM arrests cell cycle in G1/S phase as determined by flow cytometry. […]

CaSki cells = experiment: Colony formation assay, CaSki; type: cell-based, human; conditions: CaSki, 2.5, 5 and 7.5 μM
Description: (§2) FIGS. 5A and 5B show representative colony images of CaSki cells (FIG. 5A) and SiHa cells (FIG. 5B) treated with various concentrations of ORM-Br ranging from […]. FIGS. 5C and 5D represent the quantification of colony formation in CaSki cells (FIG. 5C) and SiHa cells (FIG. 5D) treated with various concentrations of ORM-Br ranging from 0 to 7.5 μM.
(§3) To determine the effect of Br-ORM on clonogenic potential of CaSki and SiHa cells, a colony formation assay was performed. In brief, 500 cells were seeded per well in a 6-well plate and allowed to stand for the next three days. The cells were treated with Br-ORM with different concentrations (2.5, 5, and 7.5 μM) for seven days and then followed by normal growth media. […] Colonies were fixed in methanol, stained with haematoxylin, and counted using UVP 810 software.
as §1

[2] = tested on: ovarian cancer cell line A2780; experiment: MTT cell viable assay (cytotoxicity and anti-proliferation); type: cell-based; conditions: Homo sapiens
Description: A biological assay was performed to study the potency of ORM-analogs by observing their pharmaceutical effects on living tissue (in vitro) and the effects of these analogs of unknown potency were compared to the effects of the standard (ormeloxifene). An MTT cell viable assay was first conducted to measure the cytotoxicity and anti-proliferation activity of synthesized analogs (Table 2 and FIG. 2).

SiHa cells [3] = experiment: Colony formation assay, SiHa; type: cell-based, human; conditions: SiHa, 2.5, 5 and 7.5 μM
Description: as §2, §3, §1

β-catenin in SiHa cells = experiment: Western blot of β-catenin in nuclear and cytoplasmic extracts, SiHa; type: cell-based, human; conditions: 15 μM, 24 hours
Description: In the Example shown at FIGS. 9A-9E, cells were subjected to treatment with 15 μM concentration of ORM-Br for 24 hours, nuclear extracts were prepared and western blot analysis were used to detect the protein levels of β-catenin. […] Western blots were reprobed with β-actin and Histone H3 antibodies as an internal control.
The nuclear and cytoplasmic lysates were prepared using respective buffers. The cell lysates (40 μg) were subjected to SDS-PAGE and blotted on PVDF membrane. The membranes were further blocked in 5% milk diluted in 1×TBST solution for 1 hour and incubated overnight in primary antibodies. The following day, the membranes were washed and incubated with secondary antibodies for 1 hour, washed again and developed on a UVP system using chemi-luminiscent reagents.
The EMT process in a cell is driven by growth factors or other signaling proteins such as Wnt/beta-catenin and extracellular matrix component that may stimulate cellular growth and migration. The effect of Br-ORM on β-catenin signaling was examined.
FIG. 15. Effect OF Br-ORM on β-catenin signaling and molecular docking of Br-ORM with β-catenin. Effect of Br-ORM on β-catenin distribution in cytoplasm and nucleus of CaSki and SiHa cells. […] Effect of Br-ORM on β-catenin localization in CaSki cells as determined by confocal microscopy (FIG. 15B(i)-(ii)). […]

## COc1ccc2c(c1)OC(C)(C)C(c1ccc(Br)cc1)C2c1ccc(OCCN2CCCC2)cc1 (stereo not drawn) [ORM-Br]
SiHa cells [1]
  cell viability / growth: inhibits the growth
SiHa cells [1]; listed as Br-ORM
  cell viability / growth: dose dependently inhibited the cell viability
CaSki cells
  colony formation (clonogenic potential): suppresses the clonogenic potential
CaSki cells; listed as Br-ORM
  colony formation (clonogenic potential): significantly decreased the number of colonies
[2]
  IC50: 11.2 µM
SiHa cells [3]
  colony formation (clonogenic potential): suppresses the clonogenic potential
SiHa cells [3]; listed as Br-ORM
  colony formation (clonogenic potential): significantly decreased the number of colonies
β-catenin in SiHa cells
  nuclear β-catenin expression: decrease in expression of nuclear β-catenin
β-catenin in SiHa cells; listed as Br-ORM
  nuclear β-catenin expression: inhibited nuclear β-catenin
